# In US10660967B2, “Curcumin conjugates and methods of use thereof” (priority 2016, dated 2020):
# Read-outs that look alike come from different tables or passages of the source.
# Tests used:
# gastric mucosa = assay: Ulcerogenic liability (ulcer index); assay type: in vivo, albino mice
# Method: The ulcerogenic liability was investigated in albino mice using the standard method. […] The animals were fasted 18 h before drug administration. […] The control group animals were given saline solution only with few drops of Tween 80. […] The gastric mucosa was examined with a magnifying lens (10×) for the presence of lesions and erosions.
# 1. percentage incidence of ulcer divided by 10;
# 2. average number of ulcers per stomach; and
# 3. average severity of ulcers;
# [1] = test system: PHA-stimulated splenocytes; assay: Proliferative response of PHA-stimulated splenocytes (MTT assay); assay type: cell-based; conditions: PHA 5 μg/ml, 72 hr; compounds at 5 μM (method says 10 μM); ratio of O.D. versus vehicle control
# Outline: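 Readout was MTT absorbance (570 nm, reference 690 nm) after 72 h culture at 37° C. Splenocytes at 1×10^6 cells/well received test compound (10 μM final) alone or plus PHA 5 μg/ml as T-cell mitogen. Values are OD ratios of compound over vehicle control (stimulation index).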
# [2] = test system: lipopolysaccharide-stimulated peritoneal macrophages; assay: Production of nitric oxide by lipopolysaccharide-stimulated peritoneal macrophages (Greiss reagent); assay type: cell-based; parameters: Potency (%): % inhibition of nitric oxide production relative to lipopolysaccharide-stimulated macrophages: concentration or dose not given beside the values; conditions: LPS-stimulated peritoneal macrophages; for Nitric oxide (nitrite) concentration, μM (average ± SD): 24 h, nitrite by Greiss reagent
# Outline: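 NO output was quantified as accumulated nitrite, reacting supernatant with Greiss reagent (sulfanilamide/α-naphthylamine) and reading at 532 nm. Beforehand, cells had been incubated 24 h at 37° C. in nitrite-free, 0.1% BSA medium with 0.5–10 ng/ml LPS, with or without catecholamines at […].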
# [3] = test system: Salmonella typhi ATCC19430; assay: Antimicrobial MIC, agar dilution; assay type: cell-based; conditions: Salmonella enterica, read-out: Minimum inhibitory concentration (MIC)
# [4] = test system: HCT116 (colon) carcinoma cell line; assay: Anti-tumor properties, MTT; assay type: cell-based; conditions: Homo sapiens, read-out: Percentage growth of tumor cell lines treated with the tested compounds (±SD)
# Method: (§1) Anti-tumor properties of curcumin conjugates were evaluated. The synthesized curcumin-amino acid conjugates and curcumin itself were screened for their antitumor properties against human tumor cell lines utilizing HepG2 (hepatocellular), MCF7 (breast), and HCT116 (colon) carcinoma cell lines by the standard mitochondrial dependent reduction of yellow MTT [3-(4,5-dimethylthiazol-2-yl)-2,5-diphenyl-tetrazolium bromide] to purple formazan technique. Cancer cells were obtained from the Egyptian Company for Production of Vaccines, Sera and Drugs (VACSERA), Cairo, Egypt. Media, chemicals and supplies for the bio-assay were obtained from Biowest, Gibco and Lonza Companies. Cells were suspended in RPMI-1640 medium for HepG2, DMEMF12 for MCF-7, and DMEM for HCT116 in addition to 1% antibiotic-antimycotic mixture (10 […] potassium penicillin, 10 […] streptomycin sulfate and […] amphotericin B), 10% fetal bovine serum and 1% L-glutamine at 37° C., under 5% CO2 and 95% humidity. Cells were seeded at a concentration of 10×10^3 cells per well in fresh complete growth medium in 96-well tissue culture microtiter plates for 24 h. Media was aspirated, 180 μL fresh medium (without serum) were added and cells were incubated with different concentrations of sample to give a final concentration of 100 μM. 0.5% DMSO was used as a negative control and doxorubicin was used as a positive control (standard reference). Triplicate wells were prepared for each individual tested compound/dose. After 72 h of incubation, the medium was aspirated, 40 μL MTT salt (2.5 mg ml^1) were added to each well and incubated for an additional 4 h at 37° C. To stop the reaction and dissolve the formed crystals, 200 μL of 10% sodium dodecyl sulfate (SDS) in deionized water were added to each well and incubated overnight at 37° C. The absorbance was then measured at 595 nm with a reference wavelength of 620 nm. Data were collected as mean values for experiments performed in triplicates for each compound which had been measured by MTT assay.
# (§2) The percentage of cell survival was calculated according to equation (4): […]
# (§3) The IC50 was determined using Graph-Pad PRISM version-5 software. Statistical calculations for determination of the mean and standard deviation (SD) values were determined by SPSS 16 software.
# [5] = test system: HepG2 (hepatocellular) carcinoma cell line; assay: Anti-tumor properties, MTT; assay type: cell-based; conditions: Homo sapiens; for activity at 100 µM: read-out: Percentage growth of tumor cell lines treated with the tested compounds (±SD)
# Method: as §1, §2, §3
# [6] = test system: MCF7 (breast) carcinoma cell line; assay: Anti-tumor properties, MTT; assay type: cell-based; conditions: Homo sapiens; for activity at 100 µM: read-out: Percentage growth of tumor cell lines treated with the tested compounds (±SD)
# Method: as §1, §2, §3
# MCF-7 cells = assay: Effect on doxorubicin induced cytotoxicity (MTT); conditions: for Percentage of viable cells MCF-7 (average ± SD): 10 μM DOX in combination with 100 μM curcumin derivative; for viability at 100 µM: Homo sapiens, MCF7, 48 h
# Method: The effects of curcumin conjugates on doxorubicin induced cytotoxicity were evaluated. In order to further examine whether curcumin derivatives can enhance conventional chemotherapeutic agents, MCF-7 cells were treated with 100 μM curcumin derivatives alone or in combination with 10 μM doxorubicin (DOX) for 48 hr. Control cultures received only medium, vehicle (DMSO), or vehicle+DOX. The percentage of viable cells was determined by MTT assay according to equation (5): […]
# [7] = test system: Staphylococcus aureus ATCC25923; assay: Antimicrobial MIC, agar dilution
# [8] = test system: Streptococcus pyogenes ATCC19615; assay: Antimicrobial MIC, agar dilution
# [9] = test system: Pseudomonas aeruginosa ATCC27853; assay: Antimicrobial MIC, agar dilution
# [10] = test system: Candida albicans (local isolate); assay: Antimicrobial MIC, agar dilution; conditions: Candida albicans, read-out: Minimum inhibitory concentration (MIC)
# [11] = orally, three successive days, 10 mg/kg indomethacin mol equivalent
# [12] = orally, three successive days, 10 mg/kg indomethacin mol equivalent, 6 animals per group
# [13] = sum of the three values, orally, three successive days, 10 mg/kg indomethacin mol equivalent
# [14] = read-out: Percentage of viable cells MCF-7 (average ± SD)
# [15] = ATCC25923, 18 h, read-out: Minimum inhibitory concentration (MIC)
# [16] = ATCC25923, read-out: Minimum inhibitory concentration (MIC)
# [17] = ATCC19615, 18 h, read-out: Minimum inhibitory concentration (MIC)
# [18] = ATCC19615, read-out: Minimum inhibitory concentration (MIC)
# [19] = ATCC27853, 18 h, read-out: Minimum inhibitory concentration (MIC)
# [20] = ATCC27853, read-out: Minimum inhibitory concentration (MIC)
# [21] = both, albino, mouse, in vivo, po, 10 mg/kg, 3 days
SMILES,% Incidence of ulcer divided by 10 (gastric mucosa; [11]),Average of ulcer number (gastric mucosa; [11]),Stimulation Index (average ± SD) [1],Potency (%): % inhibition of nitric oxide production relative to lipopolysaccharide-stimulated macrophages [2],"Nitric oxide (nitrite) concentration, μM (average ± SD) [2]",MIC ([3]; 18 h),MIC [3],"activity at 100 µM ([4]; HCT-116, HCT116, 100 μM, 72 h)","activity at 100 µM ([5]; HepG2, 100 μM, 72 h)","activity at 100 µM ([6]; MCF7, 100 μM, 72 h)",Percentage of viable cells MCF-7 (average ± SD) (MCF-7 cells; 48 hr),viability at 100 µM (MCF-7 cells; [14]),"MIC [7, 15]","MIC [7, 16]","MIC [8, 17]","MIC [8, 18]","MIC [9, 19]","MIC [9, 20]",MIC ([10]; 18 h),MIC [10],further results
"COc1cc(/C=C/C(=O)CC(=O)/C=C/c2ccc(OC(=O)[C@H](CCSC)NC(=O)OCc3ccccc3)c(OC)c2)ccc1OC(=O)[C@H](CCSC)NC(=O)OCc1ccccc1 [Cbz-Met-Cur, ((1E,6E)-3,5-dioxohepta-1,6-diene-1,7-diyl)bis(2-methoxy-4,1-phenylene) (2S,2′S)-bis(2-(((benzyloxy)carbonyl)amino)-4-(methylthio)butanoate)]",3.33,0.33,1.22 ± 0.29,44.44%,15.17 ± 2.30 µM,0.125 mg/L,0.139 µM,85.6 ± 2.4%,85.4 ± 2.4%,71%,49.74 ± 0.33,96.3 ± 3.61%,0.125 mg/L,0.139 µM,0.125 mg/L,0.139 µM,0.125 mg/L,0.139 µM,2 mg/L,2.23 µM,Average severity of ulcer (gastric mucosa; [11]): 0.33; Number of animals with ulcer (gastric mucosa; [12]): 2/6; Ulcer index (gastric mucosa; [13]): 3.99
"COc1cc(/C=C/C(=O)CC(=O)/C=C/c2ccc(O)c(OC)c2)ccc1O [Curcumin, (1E,6E)-1,7-bis(4-hydroxy-3-methoxyphenyl)hepta-1,6-diene-3,5-dione]",–,–,1.52 ± 0.10,37.11%,17.18 ± 0.65 µM,0.125 mg/L,0.339 µM,–,–,–,–,–,0.125 mg/L,0.339 µM,0.125 mg/L,0.339 µM,0.125 mg/L,0.339 µM,0.125 mg/L,0.339 µM,"% Incidence of ulcer divided by 10 (gastric mucosa; [21]): 3.33; Average of ulcer number (gastric mucosa; [21]): 0.33; Average severity of ulcer (gastric mucosa; [21]): 0.33; Number of animals with ulcer (gastric mucosa; [21]): 2/6; Ulcer index (gastric mucosa; [21]): 3.99; activity at 100 µM ([4]; HCT-116, 72 h): 2.4 ± 3.4%; IC50 ([5]; HepG2, 72 h): 38 µM; activity at 100 µM ([5]; HepG2, 72 h): 0.4%; IC50 ([6]; MCF7, 72 h): 16 µM; activity at 100 µM ([6]; MCF7, 72 h): 4.6 ± 0.2%; viability at 100 µM (MCF-7 cells; read-out: Percentage of viable cells MCF-7 (average ± SD), 0 μM DOX, 100 μM curcumin derivative alone, 48 hr): 10.8 ± 4.7%; viability at 100 µM (MCF-7 cells; read-out: Percentage of viable cells MCF-7 (average ± SD), 10 μM DOX in combination with 100 μM curcumin derivative, 48 hr): 3.16 ± 1.62%"
"COc1cc(/C=C/C(=O)CC(=O)/C=C/c2ccc(OC(=O)CNC(=O)OCC3c4ccccc4-c4ccccc43)c(OC)c2)ccc1OC(=O)CNC(=O)OCC1c2ccccc2-c2ccccc21 [Fmoc-Gly-Cur, ((1E,6E)-3,5-dioxohepta-1,6-diene-1,7-diyl)bis(2-methoxy-4,1-phenylene) bis(2-((((9H-fluoren-9-yl)methoxy)carbonyl)amino)acetate)]",0,0,1.76 ± 0.20,31.43%,18.73 ± 1.29 µM,1 mg/L,1.08 µM,95.8 ± 6.7%,82.1 ± 7%,87 ± 1.5%,30.35,98.4 ± 1.46%,1 mg/L,1.08 µM,1 mg/L,1.08 µM,1 mg/L,1.08 µM,2 mg/L,2.16 µM,Average severity of ulcer (gastric mucosa; [11]): 0; Number of animals with ulcer (gastric mucosa; [12]): 0/6; Ulcer index (gastric mucosa; [13]): 0
"COc1cc(/C=C/C(=O)CC(=O)/C=C/c2ccc(OC(=O)[C@@H](NC(=O)OCC3c4ccccc4-c4ccccc43)C(C)C)c(OC)c2)ccc1OC(=O)[C@@H](NC(=O)OCC1c2ccccc2-c2ccccc21)C(C)C [Fmoc-Val-Cur, ((1E,6E)-3,5-dioxohepta-1,6-diene-1,7-diyl)bis(2-methoxy-4,1-phenylene) (2S,2′S)-bis(2-((((9H-fluoren-9-yl)methoxy)carbonyl)amino)-3-methylbutanoate)]",–,–,2.55 ± 0.13,12.46%,23.91 ± 0.87 µM,0.5 mg/L,0.494 µM,81.8 ± 5.8%,116 ± 3.3%,83.2 ± 0.8%,25.15,100 ± 1.95%,0.25 mg/L,0.247 µM,0.5 mg/L,0.494 µM,0.5 mg/L,0.494 µM,0.5 mg/L,0.494 µM,–
